pIC50, pKd: −log10 of the molar value. The source made the active and inactive calls. No cut-off for these calls is given here.
Key:
[1] = Toxicity in 3 dpf zebra fish assessed as mortality at 25 ug/ml (reference value: 0%); parameters: species or system Danio rerio; details: zebrafish, at 25 µg/mL, read-out: Activity
Cholinesterase = Cholinesterase (Homo sapiens, UniProt P06276); test: Reversible inhibition of human BChE assessed as residual activity at 0.1 times of IC50 concentration relative to control
Sequence of Cholinesterase (P06276 whole entry): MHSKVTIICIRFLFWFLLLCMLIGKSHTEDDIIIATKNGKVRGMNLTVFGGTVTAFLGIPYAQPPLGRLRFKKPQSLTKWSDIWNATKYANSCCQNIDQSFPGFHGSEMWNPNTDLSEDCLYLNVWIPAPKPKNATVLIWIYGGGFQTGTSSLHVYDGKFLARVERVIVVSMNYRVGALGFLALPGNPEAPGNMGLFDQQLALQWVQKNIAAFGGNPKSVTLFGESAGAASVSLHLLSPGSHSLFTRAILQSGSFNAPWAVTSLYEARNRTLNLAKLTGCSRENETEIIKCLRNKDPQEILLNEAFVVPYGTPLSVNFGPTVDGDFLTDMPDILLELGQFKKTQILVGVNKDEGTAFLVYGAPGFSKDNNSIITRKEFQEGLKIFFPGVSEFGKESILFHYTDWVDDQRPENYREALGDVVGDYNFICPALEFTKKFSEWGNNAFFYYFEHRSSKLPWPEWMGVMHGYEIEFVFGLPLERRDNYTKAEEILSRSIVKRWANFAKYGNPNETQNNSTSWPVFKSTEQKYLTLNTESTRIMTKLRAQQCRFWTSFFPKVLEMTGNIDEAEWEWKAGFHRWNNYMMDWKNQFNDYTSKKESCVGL

[2] = Toxicity in Kunming mouse assessed as abnormal behavior up to 5000 mg/kg, po after 14 days; assay type: organism-based; details: in vivo, 336 h, time 14 day
Danio rerio [3] = organism: Danio rerio; test: Antialzheimer activity in Alcl3-induced zebra fish AD model assessed as increase in motility; assay type: functional, organism-based
HT-22 [4] = test: Activation of ubiquitin-proteasome system in mouse HT-22 cells expressing YFP-CLI assessed as reduction in GFP level at 10 uM after 24 hrs by flow cytometric analysis; assay type: cell-based; details: filed as activator
Mus musculus [5] = test: Antialzheimer activity in scopolamine-induced Kunming mouse model of memory impairment assessed as latency time at 5 mg/kg , po by step-down passive avoidance test (reference value: 125.65 sec); assay type: functional
[6] = Metal chelating activity assessed as Fe2+-compound complex formation in water at 37.5 uM by UV-Visible spectra analysis
[7] = Metal chelating activity assessed as Al3+-compound complex formation in PBS buffer at pH 7.4 at 37.5 uM by UV-Visible spectra analysis
[8] = Toxicity in 2 dpf zebra fish assessed as absent blood flow at 8.33 ug/ml after 3 days relative to control; assay type: tissue-based, Danio rerio; details: zebrafish, 72 h, at 8.33 µg/mL, time 3 day
HT-22 [9] = test: Activation of ubiquitin-proteasome system in mouse HT-22 cells expressing pRK5-GFP-Tau P301L mutant assessed as increase in tau degradation by measuring reduction in GFP level after 24 hrs by fluorescence microscopic method; assay type: cell-based; details: filed as activator, dose 2.5-20 µM
[10] = Toxicity in 3 dpf zebra fish assessed as mortality at 6.25 ug/ml (reference value: 0%); parameters: species or system Danio rerio; details: zebrafish, at 6.25 µg/mL, read-out: Activity
[11] = Toxicity in 2 dpf zebra fish assessed as dark brown liver at 8.33 ug/ml after 3 days relative to control; parameters: species or system Danio rerio; details: zebrafish, 72 h, at 8.33 µg/mL, time 3 day
[12] = Inhibition of self-induced amyloid beta (1 to 42 residues) (unknown origin) aggregation by thioflavin T based fluorescence assay; parameters: species or system Homo sapiens; details: read-out: IC50
PC-12 = test: Cytotoxicity against rat PC-12 cells assessed as reduction in cell viability up to 100 uM after 48 hrs by MTT assay; assay type: cell-based; details: pc-12, 48 h
[13] = (§1) Binding affinity to amyloid beta (1 to 42 residues) (unknown origin) by biolayer interferometry analysis; parameters: species or system Homo sapiens
Homo sapiens = organism: Homo sapiens; test: as §1
Danio rerio [14] = organism: Danio rerio; test: Antialzheimer activity in Alcl3-induced zebra fish AD model assessed as increase dyskinesia recovery rate; assay type: functional, organism-based
Mus musculus [15] = test: Antialzheimer activity in scopolamine-induced Kunming mouse model of memory impairment assessed as Q30 bases ratio (QC data) in brain hippocampus at 5 mg/kg , po by illumina sequencing method (reference value: 96.67%); assay type: functional
[16] = Effect on GFP expression in mouse HT-22 cells expressing pEGFP-N1 at 10 uM after 24 hrs by fluorescence microscopic method; assay type: ADME, cell-based; details: ht-22, 24 h
[17] = Drug metabolism in mouse feces assessed as metabolite formation by UPLC-TOF analysis; assay type: ADME
[18] = Selectivity index, ratio of IC50 for inhibition of equine serum BChE to IC50 for inhibition of electric eel AChE
HT-22 [19] = test: Activation of ubiquitin-proteasome system in mouse HT-22 cells expressing YFP-CLI assessed as reduction in GFP level at 10 uM after 24 hrs by fluorescence microscopic method; assay type: cell-based; details: filed as activator
Mus musculus [20] = test: Antialzheimer activity in scopolamine-induced Kunming mouse model of memory impairment assessed as Q30 bases ratio (raw data) in brain hippocampus at 5 mg/kg , po by illumina sequencing method (reference value: 93.53%); assay type: functional
Danio rerio [21] = organism: Danio rerio; test: Antialzheimer activity in Alcl3-induced zebra fish AD model assessed as increase in motility at 0.78 ug/ml relative to control; assay type: functional; details: dose 0.78 µg/ml
[22] = Metal chelating activity assessed as Fe2+-compound complex formation in PBS buffer at pH 7.4 at 37.5 uM by UV-Visible spectra analysis
[23] = Drug metabolism in rat liver microsomes assessed as metabolite formation by UPLC-TOF analysis; assay type: ADME, Microsome
HT-22 [24] = test: Activation of ubiquitin-proteasome system in mouse HT-22 cells expressing pRK5-GFP-Tau assessed as increase in tau degradation by measuring reduction in GFP level after 24 hrs by fluorescence microscopic method; assay type: cell-based; details: filed as activator, dose 2.5-20 µM
[25] = Toxicity in 3 dpf zebra fish assessed as mortality at 1.56 ug/ml (reference value: 0%); parameters: species or system Danio rerio; details: zebrafish, at 1.56 µg/mL, read-out: Activity

Question: For `CCN(CCCCOc1ccc(-c2cc(=O)c3c(O)cc(OCCCCN(CC)Cc4ccccc4)cc3o2)cc1)Cc1ccccc1`, which mortality at 25 ug/ml [1] is on record?
Answer: The mortality at 25 ug/ml was 100%.

Question: What about the Activity (Cholinesterase) of the same compound?
Answer: The Activity was 50%.

Question: What about the Activity [2] of the same compound?
Answer: Its Activity is “Non-Toxic”.

Question: What about the Activity (Danio rerio [3]) of the same compound?
Answer: The Activity was “Dose-dependent effect”.

Question: And the Activity (HT-22 [4])?
Answer: Its Activity is “Active”.

Question: What about the Time (Mus musculus [5]) of the same compound?
Answer: Its Time is 261.82 s.

Question: What about the Activity [6] of the same compound?
Answer: The Activity was “inactive”.

Question: What about the Activity [7] of the same compound?
Answer: The Activity was “inactive”.

Question: And the Activity [8]?
Answer: The Activity was 33.3%.

Question: What about the Activity (HT-22 [9]) of the same compound?
Answer: Its Activity is “Dose-dependent effect”.

Question: What about the mortality at 6.25 ug/ml [10] of the same compound?
Answer: The mortality at 6.25 ug/ml was 100%.

Question: And the Activity [11]?
Answer: The Activity was 70%.

Question: What about the pIC50 [12] of the same compound?
Answer: The pIC50 was 5.24.

Question: And the Activity (PC-12)?
Answer: Its Activity is “Non-Toxic”.

Question: What about the pKd [13] of the same compound?
Answer: The pKd was 5.92.

Question: What about the Activity (Homo sapiens) of the same compound?
Answer: Its Activity is “Dose-dependent effect”.

Question: And the Activity (Danio rerio [14])?
Answer: The Activity was “Dose-dependent effect”.

Question: And the Activity (Mus musculus [15])?
Answer: Its Activity is 96.56%.

Question: What about the Activity [16] of the same compound?
Answer: Its Activity is “Non-Toxic”.

Question: What about the Drug metabolism [17] of the same compound?
Answer: The Drug metabolism was “Metabolite_Detected”.

Question: What about the Ratio IC50 [18] of the same compound?
Answer: Its Ratio IC50 is 2.6.

Question: And the Activity (HT-22 [19])?
Answer: Its Activity is “Active”.

Question: And the Activity (Mus musculus [20])?
Answer: The Activity was 93.58%.

Question: And the Activity (Danio rerio [21])?
Answer: Its Activity is 84%.

Question: What about the Activity [22] of the same compound?
Answer: The Activity was “Active”.

Question: What about the Drug metabolism [23] of the same compound?
Answer: The Drug metabolism was “Metabolite_Detected”.

Question: What about the Activity (HT-22 [24]) of the same compound?
Answer: The Activity was “Dose-dependent effect”.

Question: And the mortality at 1.56 ug/ml [25]?
Answer: Its mortality at 1.56 ug/ml is 6.7%.
